PubChem BioAssay (NCI)
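Five concentrations, 48 hours, 96-well plates. The concentration for full growth arrest is given as TGI.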

How the values were obtained:
Experiment in all cases: DTP human tumour cell line panel, 48 h
[1] = tested on: SF-539 CNS
[2] = tested on: SF-295 CNS
[3] = tested on: K-562 leukemia
[4] = tested on: MDA-MB-435
[5] = tested on: OVCAR-5 ovarian
[6] = tested on: UACC-62 melanoma
[7] = tested on: A549 NSCLC
[8] = tested on: IGROV1 ovarian
[9] = tested on: CAKI-1 renal
[10] = tested on: LOX IMVI melanoma
[11] = tested on: SK-OV-3 ovarian
[12] = tested on: MALME-3M melanoma
[13] = tested on: OVCAR-3 ovarian
[14] = tested on: COLO 205 colon

`Cn1c2ccccc2c2c(-c3ccccc3)[n+]3ccccc3nc21` was tested, and the TGI [1] was greater than 100 µM, the TGI [2] was greater than 100 µM and the TGI [3] was greater than 100 µM. It also gave a TGI [4] of 36.6 µM, a TGI [5] greater than 100 µM and a TGI [6] of 39.3 µM. For the same compound, the TGI [7] was greater than 100 µM, the TGI [8] was 80.9 µM and the TGI [9] was greater than 100 µM. It also gave a TGI [10] of 37.4 µM, a TGI [11] greater than 100 µM and a TGI [12] of 41.6 µM. The TGI [13] was 57.7 µM and the TGI [14] was greater than 100 µM.

`O=C(O)CNC(=O)CO/N=C1/C(c2c(O)[nH]c3ccccc23)=Nc2ccccc21` gave a TGI [1] greater than 100 µM, a TGI [2] greater than 100 µM and a TGI [3] greater than 100 µM. For the same compound, the TGI [4] was greater than 100 µM, the TGI [5] was greater than 100 µM and the TGI [6] was greater than 100 µM. The TGI [7] was greater than 100 µM, the TGI [8] was greater than 100 µM and the TGI [9] was greater than 100 µM. For the same compound, the TGI [10] was greater than 100 µM, the TGI [11] was greater than 100 µM and the TGI [12] was greater than 100 µM. The TGI [13] was greater than 100 µM and the TGI [14] was greater than 100 µM.

Work on `CN(C)c1ccc(/C=C2/SC(=S)NC2=O)cc1` yielded a TGI [1] greater than 100 µM, a TGI [2] greater than 100 µM and a TGI [3] greater than 100 µM. For the same compound, the TGI [4] was greater than 100 µM, the TGI [5] was 72.6 µM and the TGI [6] was greater than 100 µM. It also gave a TGI [7] greater than 100 µM, a TGI [8] greater than 100 µM and a TGI [9] greater than 100 µM. For the same compound, the TGI [10] was greater than 100 µM, the TGI [11] was greater than 100 µM and the TGI [12] was greater than 100 µM. For the same compound, the TGI [13] was greater than 100 µM and the TGI [14] was greater than 100 µM.

`C=CCc1cc(-c2cc(CC=C)c(O)c(CN(CCCl)CCCl)c2)cc(CN(CCCl)CCCl)c1O` gave a TGI [1] of 36.3 µM, a TGI [2] of 38.7 µM and a TGI [3] greater than 100 µM. It also gave a TGI [4] of 31.1 µM, a TGI [5] of 35.4 µM and a TGI [6] of 28.9 µM. The TGI [7] was 45.3 µM, the TGI [8] was 38.9 µM and the TGI [9] was 34.6 µM. The TGI [10] was greater than 80.8 µM, the TGI [11] was 46.9 µM and the TGI [12] was 42.6 µM. It also gave a TGI [13] of 36.2 µM and a TGI [14] of 43.4 µM.

With `COc1cc(O)cc(/C=C/c2ccc(O)cc2)c1` the TGI [1] was greater than 100 µM, the TGI [2] was 84.3 µM and the TGI [3] was 98.2 µM. The TGI [4] was greater than 100 µM, the TGI [5] was greater than 100 µM and the TGI [6] was 60.5 µM. It also gave a TGI [7] greater than 100 µM, a TGI [8] greater than 100 µM and a TGI [9] of 78.2 µM. It also gave a TGI [11] greater than 100 µM, a TGI [12] greater than 100 µM and a TGI [13] greater than 100 µM. The TGI [14] was greater than 100 µM.

`O=C1/C(=C/C=C/c2ccccc2)N=C(c2ccccc2)N1C1Nc2cc3c(cc2S1)NC(N1C(=O)/C(=C/C=C/c2ccccc2)N=C1c1ccccc1)S3` (configuration not stated) gave a TGI [1] greater than 100 µM, a TGI [2] greater than 100 µM and a TGI [3] greater than 100 µM. For the same compound, the TGI [4] was greater than 100 µM, the TGI [5] was greater than 100 µM and the TGI [8] was greater than 100 µM. The TGI [9] was greater than 100 µM, the TGI [10] was greater than 100 µM and the TGI [11] was greater than 100 µM. The TGI [13] was greater than 100 µM.

Work on `CN1C(=O)c2ccccc2NC(=O)c2cnn(C)c21` yielded a TGI [1] greater than 100 µM, a TGI [2] greater than 100 µM and a TGI [3] greater than 100 µM. It also gave a TGI [5] greater than 100 µM, a TGI [6] greater than 100 µM and a TGI [7] greater than 100 µM. For the same compound, the TGI [8] was greater than 100 µM, the TGI [9] was greater than 100 µM and the TGI [10] was greater than 100 µM. For the same compound, the TGI [11] was greater than 100 µM, the TGI [12] was greater than 100 µM and the TGI [13] was greater than 100 µM. For the same compound, the TGI [14] was greater than 100 µM.

For `C[n+]1c2ccccc2c(CNc2ccc(S(=O)(=O)N=C(N)N)cc2)c2ccccc21`, the TGI [1] was 17 µM, the TGI [2] was 23.4 µM and the TGI [3] was 52 µM. It also gave a TGI [5] greater than 100 µM, a TGI [6] of 42.1 µM and a TGI [7] greater than 100 µM. For the same compound, the TGI [8] was 66.6 µM, the TGI [9] was 19.9 µM and the TGI [10] was 20.2 µM. It also gave a TGI [11] greater than 100 µM, a TGI [12] of 63.1 µM and a TGI [13] of 48.7 µM.

Compound `CC1=NN(c2cccc(Cl)c2)C2(SCC(=O)N2c2nc3ccccc3s2)/C1=C\c1ccc(Cl)cc1` (configuration not stated) has a TGI [1] of 89.6 µM, a TGI [2] of 42.7 µM and a TGI [3] of 41.3 µM. It also gave a TGI [4] of 43.1 µM, a TGI [5] of 55.4 µM and a TGI [8] of 37.8 µM. For the same compound, the TGI [9] was 39.2 µM, the TGI [10] was 45.2 µM and the TGI [11] was 47.3 µM. It also gave a TGI [13] of 37.2 µM.

`O=C(O)CCCCCCC[C@@H]1S[C@H]1CCCCCCO` showed a TGI [1] greater than 100 µM, a TGI [2] greater than 100 µM and a TGI [3] greater than 100 µM. It also gave a TGI [5] greater than 100 µM, a TGI [6] greater than 100 µM and a TGI [7] greater than 100 µM. For the same compound, the TGI [8] was greater than 100 µM, the TGI [9] was greater than 100 µM and the TGI [10] was greater than 100 µM. It also gave a TGI [11] greater than 100 µM, a TGI [12] greater than 100 µM and a TGI [13] greater than 100 µM. For the same compound, the TGI [14] was greater than 100 µM.
